Experimental findings from patent US20140073634A1 (Institute For Applied Cancer Science/The University of …, priority 2012, published 2014) are described below.

Structures are written as SMILES.

In one test the test system is 293T-HRE-GFP-luc cells. Put plainly: Cell-based reporter assay for IC50 determinations (HRE-luciferase, hypoxia). As to conditions: 6 h, 6 hrs hypoxia (1% O2), luminescence. As to the method: Cell-Based Reporter Assay for IC50 Determinations
293T-HRE-GFP-luc cells were routinely maintained in DMEM media (high glucose version with GlutaMAX and HEPES, Gibco, catalog #10564) supplemented with 10% fetal bovine serum and 2 μg/mL puromycin (Invitrogen, catalog #A11138-03) using a humidified incubator (normoxia conditions consisting of 37° C., 5% CO2 and ambient O2).
In preparation for the reporter assay, cells were harvested and resuspended in DMEM media (high glucose version with GlutaMAX and HEPES) supplemented with 10% fetal bovine serum. Cells were inoculated into 384-well white Culturplates (Perkin Elmer catalog #6007680) at a density of 12,000 cells/well in a volume of […]. The microplates were incubated overnight (approximately 17-19 hours) at 37° C. with 5% CO2 and ambient O2. Stock solutions of the test compounds were prepared in DMSO (Sigma, Catalog #D2650) and serially diluted 1:3 using DMSO. Compounds were additionally diluted (1:50) with culturemedium and 10 µL were added per well to the Culturplate. Following a 30 min. incubation under normoxia conditions, the plates were incubated in hypoxia for 6 hrs. (37° C., 5% CO2 and 1% O2). Steadylite Plus (Perkin Elmer, catalog #6016751) was then added ([…]), the plates were mixed on an orbital shaker at room temperature in the dark for 15 min., and luminescence was measured using an Envision plate reader (Perkin Elmer). IC50 values were calculated using a four-parameter logistic curve fit. Results are shown below in Table 2; ND indicates no data.
`COCCOc1cccc(Cn2cc(-c3noc(-c4cnc(OCC(F)(F)F)nc4)n3)ccc2=O)c1` [Example 240, 1-{[3-(2-methoxyethoxy)phenyl]methyl}-5-{5-[2-(2,2,2-trifluoroethoxy)pyrimidin-5-yl]-1,2,4-oxadiazol-3-yl}-1,2-dihydropyridin-2-one] showed a half-maximal inhibitory concentration (IC50) of less than 0.1 µM.
Still for that read-out and setting: the value for `CC(C)(O)c1cccc(Cn2cc(-c3nnc(-c4ccc(OC(F)(F)F)cc4)o3)ccc2=O)c1` [Example 103] was less than 0.1 µM; that for `CS(=O)(=O)CCCOc1cccc(Cn2cc(-c3nnc(-c4ccc(S(=O)(=O)C(F)(F)F)cc4)o3)ccc2=O)c1` [Example 259, 1-{[3-(3-methanesulfonylpropoxy)phenyl]methyl}-5-[5-(4-trifluoromethanesulfonylphenyl)-1,3,4-oxadiazol-2-yl]-1,2-dihydropyridin-2-one] was less than 0.1 µM; that for `CC(C)Oc1ccc(-c2nc(-c3ccc(=O)n(Cc4cccc(N5CCC(S(C)(=O)=O)CC5)c4)c3)no2)cc1` [Example 78, 5-(5-(4-Isopropoxyphenyl)-1,2,4-oxadiazol-3-yl)-1-(3-(4-(methylsulfonyl)piperidin-1-yl)benzyl)pyridin-2(1H)-one] was less than 0.1 µM.
As for `NS(=O)(=O)c1cccc(Cn2cc(-c3nc(-c4ccc(OC(F)(F)F)cc4)no3)ccc2=O)c1` [Example 124, 3-((2-oxo-5-(3-(4-(trifluoromethoxy)phenyl)-1,2,4-oxadiazol-5-yl)pyridin-1(2H)-yl)methyl)benzenesulfonamide], the half-inhibitory concentration (IC50) is less than 0.1 µM.
The same measure, in the same setting: the value for `COCCOc1cccc(Cn2cc(-c3noc(-c4cnc(OCCOC)nc4)n3)ccc2=O)c1` [Example 239, 1-{[3-(2-methoxyethoxy)phenyl]methyl}-5-{5-[2-(2-methoxyethoxy)pyrimidin-5-yl]-1,2,4-oxadiazol-3-yl}-1,2-dihydropyridin-2-one] was 0.1 to 1 µM; that for `COCCOc1cccc(Cn2cc(-c3noc(-c4cnc(NCC(C)(C)C)nc4)n3)ccc2=O)c1` [Example 247, 5-(5-{2-[(2,2-dimethylpropyl)amino]pyrimidin-5-yl}-1,2,4-oxadiazol-3-yl)-1-{[3-(2-methoxyethoxy)phenyl]methyl}-1,2-dihydropyridin-2-one] was less than 0.1 µM.
Still for that read-out and setting: with `Cc1ccc(-c2nnc(-c3ccc(OC(F)(F)F)cc3)o2)c(=O)n1Cc1ccnc(N2CCC(C#N)CC2)c1` [Example 28, 1-(4-((6-Methyl-2-oxo-3-(5-(4-(trifluoromethoxy)phenyl)-1,3,4-oxadiazol-2-yl)pyridin-1(2H)-yl)methyl)pyridin-2-yl)piperidine-4-carbonitrile] the figure was 0.1 to 1 µM.
The same measure, in the same setting: with `CN1CCN(c2cccc(Cn3cc(-c4cc(-c5ccc(OC(F)(F)F)cc5)on4)ccc3=O)c2)CC1` [Example 96a, 1-(3-(4-Methylpiperazin-1-yl)benzyl)-5-(5-(4-(trifluoromethoxy)phenyl)isoxazol-3-yl)pyridin-2(1H)-one] the figure was less than 0.1 µM.
Turning to `CN1CCN(c2cc(Cn3nc(-c4nc(-c5ccc(OC(F)(F)F)cc5)no4)ccc3=O)ccc2F)CC1` [Example 113, 2-(4-fluoro-3-(4-methylpiperazin-1-yl)benzyl)-6-(3-(4-(trifluoromethoxy)phenyl)-1,2,4-oxadiazol-5-yl)pyridazin-3(2H)-one], the IC50 was less than 0.1 µM.
The same measure, in the same setting: with `O=c1ccc(-c2nc(-c3ccc(OC(F)(F)F)cc3)no2)cn1Cc1cccc(CCO)c1` [Example 42, 1-{[3-(2-Hydroxyethyl)phenyl]methyl}-5-{3-[4-(trifluoromethoxy)phenyl]-1,2,4-oxadiazol-5-yl}-1,2-dihydropyridin-2-one] the figure was less than 0.1 µM.
On the same count and under the same terms, the value for `COCCOc1cccc(Cn2cc(-c3noc(-c4cnc(C5CC5)nc4)n3)ccc2=O)c1` [Example 244, 5-[5-(2-cyclopropylpyrimidin-5-yl)-1,2,4-oxadiazol-3-yl]-1-{[3-(2-methoxyethoxy)phenyl]methyl} 1,2-dihydropyridin-2-one] was less than 0.1 µM; that for `O=c1ccc(-c2nc(-c3ccc(OC(F)(F)F)cc3)no2)cn1Cc1ccnc(N2CCCC2)c1` [Example 159, 1-{[2-(pyrrolidin-1-yl)pyridin-4-yl]methyl}-5-{3-[4-(trifluoromethoxy)phenyl]-1,2,4-oxadiazol-5-yl}-1,2-dihydropyridin-2-one] was less than 0.1 µM.
Same read-out and setting: the value for `O=c1ccc(-c2cc(-c3ccc(OC(F)(F)F)cc3)no2)cn1Cc1cccc(NC2CCS(=O)(=O)CC2)c1` [Example 253, 1-(3-((1,1-dioxidotetrahydro-2H-thiopyran-4-yl)amino)benzyl)-5-(3-(4-(trifluoromethoxy)phenyl)isoxazol-5-yl)pyridin-2(1H)-one] was less than 0.1 µM.
For `CC(C)(O)c1cc(Cn2cc(-c3nc(-c4ccc(OC(F)(F)F)cc4)no3)ccc2=O)ccn1` [Example 50, 1-{[2-(2-Hydroxypropan-2-yl)pyridin-4-yl]methyl}-5-{3-[4-(trifluoromethoxy)phenyl]-1,2,4-oxadiazol-5-yl}-1,2-dihydropyridin-2-one], the half-inhibitory concentration (IC50) fell in the range of 0.1 to 1 µM.
Still for that read-out and setting: the value for `CN1CCN(c2cc(Cn3cc(-c4ncc(-c5ccc(OC(F)(F)F)cc5)o4)ccc3=O)ccn2)CC1` [Example 92, 1-((2-(4-Methylpiperazin-1-yl)pyridin-4-yl)methyl)-5-(5-(4-(trifluoromethoxy)phenyl)oxazol-2-yl)pyridin-2(1H)-one] was 0.1 to 1 µM; that for `CS(=O)(=O)CCCOc1cccc(Cn2cc(-c3nc(-c4ccc(OC(F)(F)F)cc4)co3)ccc2=O)c1` [Example 95, 1-(3-(3-(Methylsulfonyl)propoxy)benzyl)-5-(4-(4-(trifluoromethoxy)phenyl)oxazol-2-yl)pyridin-2(1H)-one] was less than 0.1 µM.
As for `Cc1ccc(Cn2nc(-c3nc(-c4ccc(OC(F)(F)F)cc4)no3)ccc2=O)cc1` [Example 24, 2-(4-Methylbenzyl)-6-(3-(4-(trifluoromethoxy)phenyl)-1,2,4-oxadiazol-5-yl)pyridazin-3(2H)-one], the IC50 was less than 0.1 µM.
In turn, `CN1CCN(C(=O)c2cc(Cn3nc(-c4nc(-c5ccc(OC(F)(F)F)cc5)no4)ccc3=O)ccc2F)CC1` [Example 130, 2-{[4-fluoro-3-(4-methylpiperazine-1-carbonyl)phenyl]methyl}-6-{3-[4-(trifluoromethoxy)phenyl]-1,2,4-oxadiazol-5-yl}-2,3-dihydropyridazin-3-one] came in with an IC50 of 0.1 to 1 µM.
The compound `Cc1ccc(C(=O)Nc2ccc(OC(F)(F)F)cc2)c(=O)n1Cc1ccnc(N2CCN(C)CC2)c1` [Example 8, 1-methyl-4-(4-((6-methyl-2-oxo-3-((4-(trifluoromethoxy)phenyl)carbamoyl)pyridin-1(2H)-yl)methyl)pyridin-1-ium-2-yl)piperazin-1-ium bis-trifluoroacetate] gave an IC50 of less than 0.1 µM.
Regarding `CS(=O)(=O)C1CCN(c2cccc(Cn3nc(-c4nc(-c5ccc(N6CCOCC6)cc5)no4)ccc3=O)c2)CC1` [Example 83, 2-(3-(4-(Methylsulfonyl)piperidin-1-yl)benzyl)-6-(3-(4-morpholinophenyl)-1,2,4-oxadiazol-5-yl)pyridazin-3(2H)-one], the half-maximal inhibitory concentration (IC50) is less than 0.1 µM.

The test is the same for the next values; noted with them: 6 hrs hypoxia (1% O2), luminescence.
Consider `CN1CCN(c2cccc(Cn3cc(-c4nc(-c5ccc(OC(F)(F)F)cc5)co4)ccc3=O)c2)CC1` [Example 93, 1-(3-(4-Methylpiperazin-1-yl)benzyl)-5-(4-(4-(trifluoromethoxy)phenyl)oxazol-2-yl)pyridin-2(1H)-one], for which the 50% inhibitory concentration (IC50) was less than 0.1 µM.

In general, IC50 refers to the midpoint of a concentration-inhibition curve.
